Measured values reported in patent US9284559B2, “Multivalent aptamer complexes” (Wake Forest University Health Sciences, priority 2009, dated 2016).

Columns and labels:
PC3 xenografts = assay: In vivo xenograft study of anti-tumor activity; details: for tumor growth relative to control: i.v. 1× per week via jugular vein catheter, 5FU 100 mg/kg, first 44 days, FdUMP[10] effect from day 18
Excerpt: FIG. 7. Plot of tumor size versus time for PC3 xenografts in nude mice. Data are shown for four treatment groups (n=8 in each group): 1) control 1; 2) FdUMP[10]; 3) control 2; 4) 5-FU. The FdUMP[10] and 5FU studies were done consecutively (rather than concurrently) so that two control groups were required.
The principal strategy that will be used to render the dimeric aptamer complexes we have developed selectively cytotoxic towards targeted cancer cells is to include cytotoxic nucleotides, such as FdU, in the structure. While other modalities may also be included to render these modified aptamers cytotoxic to cancer cells (e.g. siRNA, toxins), there is considerable merit to the concept that dimeric aptamer complexes are the best method for delivery of FdU and other cytotoxic nucleotide analogs in the future. In principle, delivery of cytotoxic nucleotide analogs in aptamers increases the selectivity and potency of these drugs while minimizing systemic toxicities. In this regard, it is important to consider the advantages obtained by inclusion of FdU in single-stranded DNA (e.g. FdUMP[10]) relative to delivery as the nucleobase (5FU). We have shown that not only does delivery of fluoropyrimidine (FP) as FdUMP[10] increase efficacy and decrease toxicity, it also changes the spectrum of malignancies that are responsive to FP treatment. […] PSMA, the target for the dimeric aptamer complexes being developed by us, is frequently expressed in advanced prostate cancer. PSMA is also frequently expressed in tumor neovasculature. As FPs are widely used for treatment of solid tumors, the dimeric aptamer complexes developed in these studies should provide an improved mechanism for tumor-specific delivery of FPs.
We recently completed an in vivo xenograft study evaluating the anti-tumor activity of FdUMP[10] and 5FU towards PC3 xenografts (FIG. 8). […] FdUMP[10] (150 mg/kg) was injected i.v. 1× per week via jugular vein catheter. 5FU (100 mg/kg) was also injected 1× per week by the same route. […] FdUMP[10] was well-tolerated at the administered dose. A mixed effects model was fit to examine whether there were differences between groups over the first 44 days after administration of FdUMP[10] or 5FU. In this model, individual animals were considered as random effects and the group and day variables were considered as fixed effects. […] We expect that with dimeric aptamer complexes including FdU, we will further increase the selectivity for malignant cells and further reduce systemic toxicities. Thus, dimeric aptamer complexes may ultimately become the preferred method for administering fluoropyrimidine chemotherapy in the era of molecularly targeted cancer therapeutics.

PC3 cells [1] = assay: Relative cytotoxicity of activated FPs in PC3 versus C4-2 cells; type: cell-based; details: PC3 mutant p53, C4-2 wtp53; ongoing studies
C4-2 cells [2] = assay: Fluorescence microscopy of fluorescently-labeled aptamer, dimeric complex or mAb on live cells; type: cell-based
Procedure: (§1) FIG. 1. Fluorescence microscopy images of the PSMA01 DNA aptamer binding to (A) C4-2 cells; (B) LNCaP cells; (C)PC3 cells. (D) Binding of the A10-3 RNA aptamer to C4-2 cells. Live cells were incubated in PBS with 1×10^−6 M Rhodamine-conjugated aptamer for 2 h at room temperature. Cells were fixed with 3.7% formaldehyde for 2 min prior to visualization using an Olympus inverted microscope.
FIG. 3. Fluorescence microscopy images of (A) a monomeric aptamer conjugate of PSMA01 with a dT16 tail; (B) a dimeric aptamer complex consisting of 1:1 ratio of monomeric PSMA01 conjugates with dA16 and dT16 tails; (C) the J591 mAb. All images were obtained using live C4-2 cells. For (A) and (B) cells were prepared as described in FIG. 4. […]
We have has formed an affinity matrix using recombinant PSMA expressed from baculovirus. […] Protein purity was determined by gel electrophoresis and the identity of the protein was confirmed by Western blotting and mass spectrometry. […] The ssDNA product was analyzed by gel electrophoresis and quantified by UV absorption. […] DNA sequences were determined from individual clones at the core DNA sequencing facility of the CCCWFU. […] These sequences were also shown using fluorescence microscopy to bind selectively to PSMA-expressing prostate cancer cells (LNCaP, C4-2) relative to PC3 cells. […]

PC3 cells [3] = assay: Fluorescence microscopy of fluorescently-labeled aptamer on live cells (PSMA− negative control); type: cell-based; details: 2 h, room temperature
Procedure: as §1
(§2) In these studies, live (non-fixed cells) cells were incubated in the presence of fluorescently-labeled aptamer for 2 h at room temperature. In these studies, C4-2 and LNCaP cells were used to evaluate binding to PSMA+ cells while PC3 cells were used as a PSMA− negative control.

LNCaP cells = assay: Fluorescence microscopy of fluorescently-labeled aptamer on live cells; type: cell-based; details: PSMA+ cells, 2 h, room temperature
Procedure: as §1, §2

C4-2 cells [4] = assay: Flow cytometry of binding of fluorescently labeled aptamers and dimeric aptamer complexes; type: cell-based; details: FIG. 6; Quasar 570 / Quasar 670 fluorescence
Procedure: FIG. 6. Flow cytometry evaluation of the binding of fluorescently labeled aptamers and dimeric aptamer complexes with and without flexible linkers to C4-2 cells. Aptamer labeling with Quasar 570 and Quasar 670 was done as described in FIG. 8.
The relative binding of the PSMA01 DNA aptamer in monomeric form as well as in dimeric form with and without flexible linkers was also evaluated towards C4-2 cells using flow cytometry. Cells were treated in the same manner as described for the confocal microscopy experiments and were detached using an enzyme-free cell-dissociation buffer (Invitrogen). Cells were analyzed using a BD FACSCanto flow cytometry system and the data were analyzed using BD FACSDiva software (BD Biosciences, San Jose, Calif.).

Compound: O=c1[nH]cc(F)c(=O)[nH]1 [5FU, 5-fluorouracil]
- tumor growth relative to control (PC3 xenografts; FdUMP[10] 150 mg/kg): did not reduce tumor growth rates relative to control
- tolerability / body weight at administered dose (PC3 xenografts; mouse, in vivo): lost weight compared to the controls

Compound: FdUMP[10]
- tumor growth relative to control (PC3 xenografts; FdUMP[10] 150 mg/kg): significantly reduced tumor growth relative to control
- tolerability / body weight at administered dose (PC3 xenografts; i.v. 1× per week, FdUMP[10] 150 mg/kg, 5FU 100 mg/kg (maximum tolerated dose)): well-tolerated
- relative sensitivity of PC3 versus C4-2 cells to activated FPs (PC3 cells [1]): PC3 cells are more sensitive

Compound: PSMA01: DNA aptamer to PSMA, 5′-GCGTTTTCGCTTTTGCGTTTTGGGTCATCTGCTTACGATAGCAATCGT (SEQ ID NO: 1) (DNA, backbone and methylation of C not given here; further chemistry not fully specified)
- internalization into PSMA+ cells (C4-2 cells [2]; C4-2 and LNCaP cells, incubation at room temperature or 37° C.): Neither our PSMA-01 DNA aptamer nor the A10-3 aptamer were internalized into PSMA+ cells to any significant extent
- binding to C4-2 cells (C4-2 cells [2]; PSMA+ cells, live cells, 1×10^−6 M Rhodamine-conjugated aptamer, 2 h, room temperature): selective binding
- binding to PC3 cells (PC3 cells [3]): no binding
- binding to LNCaP cells (LNCaP cells): selective binding
- mean fluorescence intensity (cell binding) (C4-2 cells [4]): right-shifted relative to background
